Experimental data reported in the supplement of paper PMC10307832.

Assays:
Assay in all cases: relative viability (nuclei count vs DMSO), 5 days (fraction); higher = more cells survive
[1] = compound: O=C(Nc1cccc(C(F)(F)F)c1)Nc1cc(S(=O)(=O)NC2CC2)ccc1-c1ccsc1 [AGI-6780] + COc1cc2c(Oc3ccc(NC(=O)C4(C(=O)Nc5ccc(F)cc5)CC4)cc3F)ccnc2cc1OCCCN1CCOCC1 [Foretinib] (partner 0.25 µM)
Method in brief: (§1)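 Nuclei were stained with Hoechst during a one-step fixation (final 0.05% Triton X-100, 1% formaldehyde, 1 ug/ml Hoechst) carried out 5 days after dosing, then counted on 4× images. The cells, lung cancer lines in 1536-well plates, had been dosed by pin tool the day after seeding with one drug alone or a fixed anchor-drug dose plus five library-drug doses (not always all listed) in √10 steps. Relative viability is the nuclei count in treated wells divided by that in vehicle wells, and each value is the median of duplicate plates.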

[2] = compound: O=C(Nc1cccc(C(F)(F)F)c1)Nc1cc(S(=O)(=O)NC2CC2)ccc1-c1ccsc1 [AGI-6780] + Cc1nc(NC(=O)N2CCC[C@H]2C(N)=O)sc1-c1ccnc(C(C)(C)C(F)(F)F)c1 [Alpelisib] (partner 2 µM)
Method in brief: as §1

[3] = compound: O=C(Nc1cccc(C(F)(F)F)c1)Nc1cc(S(=O)(=O)NC2CC2)ccc1-c1ccsc1 [AGI-6780] + Nc1nc2[nH]cc(CCc3ccc(C(=O)N[C@@H](CCC(=O)O)C(=O)O)cc3)c2c(=O)[nH]1 [Pemetrexed] (partner 0.2 µM)
Method in brief: as §1

[4] = compound: O=C(Nc1cccc(C(F)(F)F)c1)Nc1cc(S(=O)(=O)NC2CC2)ccc1-c1ccsc1 [AGI-6780] + O=C(c1cc(Cc2n[nH]c(=O)c3ccccc23)ccc1F)N1CCN(C(=O)C2CC2)CC1 [Olaparib] (partner 8 µM)
Method in brief: as §1

Row | Cell Line | relative viability ([1]; first compound 0.08 µM) | relative viability ([1]; first compound 0.253 µM) | relative viability ([1]; first compound 0.8 µM) | relative viability ([1]; first compound 2.53 µM) | relative viability ([1]; first compound 8 µM) | relative viability ([2]; first compound 0.08 µM) | relative viability ([2]; first compound 0.253 µM) | relative viability ([2]; first compound 0.8 µM) | relative viability ([2]; first compound 2.53 µM) | relative viability ([2]; first compound 8 µM) | relative viability ([3]; first compound 0.08 µM) | relative viability ([3]; first compound 0.253 µM) | relative viability ([3]; first compound 0.8 µM) | relative viability ([3]; first compound 2.53 µM) | relative viability ([3]; first compound 8 µM) | relative viability ([4]; first compound 0.08 µM) | relative viability ([4]; first compound 0.253 µM) | relative viability ([4]; first compound 0.8 µM) | relative viability ([4]; first compound 2.53 µM) | relative viability ([4]; first compound 8 µM)
1 | HARA | 0.957 | 0.864 | 0.963 | 0.83 | 0.91 | 0.925 | 0.834 | 0.585 | 0.801 | 0.974 | 0.248 | 0.266 | 0.199 | 0.271 | 0.239 | 0.847 | 0.945 | 0.311 | 0.893 | 0.83
2 | H3255 | 0.928 | 0.798 | 1.03 | 0.909 | 0.85 | 0.687 | 0.62 | 0.728 | 0.468 | 0.754 | 0.554 | 0.549 | 0.636 | 0.629 | 0.581 | 0.505 | 0.526 | 0.607 | 0.566 | 0.632
3 | SK-LU-1 | 0.873 | 0.859 |  | 0.737 | 0.831 | 0.957 | 0.906 | 0.797 | 1 | 1.02 | 0.981 | 0.93 | 0.765 | 0.984 | 1.11 | 0.506 | 0.482 | 0.349 | 0.402 | 0.456
4 | NCI-H1793 | 0.729 | 0.745 | 0.771 | 0.555 | 0.603 | 0.744 | 0.831 | 0.943 | 0.562 | 0.675 | 0.838 | 0.926 | 0.964 | 0.671 | 0.959 | 0.904 | 0.845 | 0.902 | 0.695 | 0.805
5 | EMC-BAC-2 | 1.05 | 1.04 | 0.961 | 0.842 | 1.18 | 0.797 | 0.73 | 0.756 | 0.67 | 0.778 |  | 0.434 | 0.43 | 0.55 | 0.44 |  | 0.477 | 0.409 | 0.45 | 0.53
6 | NCI-H2347 | 0.607 | 0.828 | 0.831 | 0.79 | 1.57 | 1 | 0.954 | 0.691 | 1 | 1.13 | 0.44 | 0.439 | 0.428 | 0.448 | 0.454 | 0.564 | 0.561 | 0.569 | 0.597 | 0.592
7 | EPLC-272H |  | 0.762 | 0.891 | 0.489 | 0.619 | 0.88 | 0.972 | 0.927 | 0.785 | 0.864 | 0.302 | 0.4 | 0.27 | 0.398 | 0.272 | 0.748 | 0.827 | 0.633 | 0.732 | 0.942
8 | LU99A | 0.915 | 0.813 | 0.874 | 0.633 | 0.738 | 0.528 | 0.524 | 0.516 | 0.518 | 0.558 | 0.193 | 0.162 | 0.196 | 0.195 | 0.163 | 0.255 | 0.289 | 0.178 | 0.243 | 0.287
9 | LXF-289 | 1 | 1 | 1.04 | 0.954 | 0.934 | 1.03 | 1.04 | 1.07 | 1.09 | 1.03 | 0.912 | 0.763 | 0.964 | 1.04 | 0.919 | 1.07 | 1.02 | 1.08 | 1.06 | 1.03
10 | NCI-H1395 | 0.917 | 0.986 | 0.979 | 0.901 | 0.931 | 1.14 | 1.15 | 1.23 |  | 0.969 | 0.779 | 0.975 | 0.945 | 0.729 | 0.843 | 0.474 | 0.475 | 0.474 | 0.424 | 0.439
11 | NCI-H520 | 0.684 | 0.942 | 1.07 | 0.655 | 0.77 | 1.05 | 1.08 | 0.959 | 0.732 | 0.922 | 0.803 | 0.625 | 0.669 | 0.586 | 0.637 | 0.33 | 0.376 | 0.31 | 0.322 | 0.331
12 | 201T | 1.09 | 1.08 | 1.2 | 1.09 | 1.05 | 1.11 | 1.05 | 0.991 | 0.941 | 1.01 | 0.34 | 0.325 | 0.345 | 0.31 | 0.291 | 0.869 | 0.837 | 0.84 | 0.871 | 0.775
13 | NCI-H1944 | 1.03 | 0.885 | 0.93 |  | 0.869 | 0.862 | 0.886 | 0.821 | 0.7 | 0.767 | 0.642 | 0.627 | 0.611 |  | 0.684 | 0.464 | 0.412 | 0.448 |  | 0.395
14 | NCI-H3122 | 0.971 | 0.959 | 1.08 | 1.03 | 0.983 | 0.876 | 0.859 | 0.892 | 0.633 | 0.822 | 0.209 | 0.199 | 0.191 | 0.195 | 0.185 | 0.608 | 0.626 | 0.725 | 0.706 | 0.649
15 | NCI-H1734 | 0.814 | 0.954 | 0.83 | 0.663 | 0.819 | 0.752 | 0.705 | 0.671 |  | 0.733 | 0.479 | 0.438 | 0.429 | 0.426 | 0.42 | 0.722 | 0.633 | 0.654 | 0.492 | 0.574
16 | NCI-H1792 |  |  |  |  |  | 0.763 | 0.677 | 0.693 | 0.702 | 0.558 | 0.993 | 0.842 | 0.79 |  | 0.844 | 0.266 | 0.404 | 0.576 |  | 0.292
17 | NCI-H2126 | 1.32 | 1.09 | 1.08 | 1.08 | 1.18 | 0.812 | 0.72 | 0.767 | 0.696 | 0.741 | 0.743 | 0.649 | 0.616 | 0.676 | 0.768 | 0.981 | 0.895 | 0.914 | 0.84 | 0.959
